Tests used:
[1] = In-vivo acute oral toxicity; design: species or system Swiss albino mice; conditions: for ALP / Albumin / Bilirubin / Body weight / Cholesterol / Creatinine / Haemoglobin / RBC / SGOT / SGPT / Serum Protein / Triglycerides / WBC: 7th day, Mean±SE, n=6
Experimental: In view of potent anti-cancer activity of compound 2 in in-vitro model, acute and sub-acute oral toxicity of the same was carried out in Swiss albino mice for its further development into drug product. Experiment was conducted in accordance with the Organization for Economic Cooperation and Development (OECD) test guideline No 423 (1987).
For the acute oral toxicity study, 30 mice (15 male and 15 female) were taken and divided into […] comprising 3 male and 3 female mice in each group weighing between 20-25 g. The animals were maintained at 22±5°C with humidity control and also on an automatic dark and light cycle of 12 hours. The animals were fed with the standard mice feed and provided ad libitum drinking water. Mice of group 1 (Group 1) were kept as control and animals of groups 2, 3, 4 and 5 (Groups II, III, IV & V) were kept as experimental. The animals were acclimatized for 7 days in the experimental environment prior to the actual experimentation. The test compound 2 was solubilized in dimethyl sulphoxide and then suspended in double distilled water (DDW) and was given at 5, 50, 300 and 1000mg/kg body weight to animals of groups 2, 3, 4 and 5 (Groups II, III, IV & V) respectively once orally. Control animals received only vehicle.
The animals were checked for mortality and any signs of ill health at hourly interval on the day of administration of drug and there after a daily general case side clinical examination was carried out including changes in skin, mucous membrane, eyes, occurrence of secretion and excretion and also responses like lachrymation, piloerection respiratory patterns etc. Also changes in gait, posture and response to handling were also recorded. In addition to observational study, body weights were recorded and blood and serum samples were collected from all the animals on 7th day of the experiment in acute oral toxicity. The samples were analysed for total RBC, WBC, differential leucocytes count, haemoglobin percentage and biochemical parameters like ALP, SGPT, SGOT, total cholesterol, triglycerides, creatinine, bilirubin, serum protein, tissue protein, malonaldehyde and reduced GSH activity. The animals were then sacrificed and were necropsed for any gross pathological changes. Weights of vital organs like liver, heart, kidney etc. were recorded. Table 7. Effect of compound 2 as a single acute oral dose at 5, 50, 300 and 1000 mg/kg on body weight, haematological and serum biochemical parameters in Swiss albino mice (Mean±SE; n=6; a, P<0.001 compared to control, 5, 50, 300, 1000 mg/kg)

THP-1 (Leukemia) = assay: Sulforhodamine B cytotoxicity assay; type: cell-based; conditions: Homo sapiens, THP-1, 48 h, read-out: Human cancer cell lines IC50 THP-1 (Leukemia)
Experimental: (§1) The benzyl compounds were evaluated by Sulforhodamine B Assay as per reported method [Skehan etal., J. Natl. Cancer Inst.1990, 82, 1107]. The human cancer cell lines procured from National Cancer Institute, Frederick, U. S. A. were used in present study. Cells were grown in tissue culture flasks in complete growth medium (RPMI-1640 medium with 2 mM glutamine, pH 7.4 supplemented with 10% fetal bovine serum, 100 µg/ml streptomycin and 100 units/ml penicillin) in a carbon dioxide incubator (37°C, 5% CO2, 90% RH). The cells at subconfluent stage were harvested from the flask by treatment with trypsin (0.05% in PBS (pH 7.4) containing 0.02% EDTA). Cells with viability of more than 98%, as determined by trypan blue exclusion, were used for determination of cytotoxicity. The cell suspension required concentration of cells was prepared in complete growth medium. Stock solution of 2x10^-2 M of compounds were prepared in DMSO and further dilution was carried out complete growth medium containing 50µg/ml of gentamycin to obtained working test solution of required concentration. In vitro cytotoxicity against various human cancer cell lines was determined using 96-well cell culture plates. The 100µl of cell suspension was added to each well of the 96-well cell culture plates. The cells were allowed to grow in CO2 incubator (37°C, 5% CO2, 90% RH) for 24 hours. The test materials in complete growth medium (100 µl) were added after 24 hours incubation to the wells containing cell suspension. The plates were further incubated for 48 hours (37°C in an atmosphere of 5% CO2 and 90% relative humidity) in a carbon dioxide incubator after addition of test material and then the cell growth was stopped by gently layering trichloroacetic acid (50% TCA, 50 µl) on top of the medium in all the wells. The plates were incubated at 4°C for one hour to fix the cells attached to the bottom of the wells. The liquid of all the wells was gently pipetted out and discarded. The plates were washed five times with distilled water to remove TCA, growth medium low molecular weight metabolites, serum proteins etc. and air - dried. Cell growth was measured by staining with sulforhodamine B dye. The adsorbed dye was dissolved in Tris-HCl Buffer (100 µl/well, 0.01M, pH 10.4) and plates were gently stirred for 10 minutes on a mechanical stirrer. The optical density (OD) was recorded on ELISA reader at 540nm. Paclitaxel (Taxol), and 5-Fluorouracil were used as positive controls (Standard drugs).

T-47D (Breast cancer) = assay: Sulforhodamine B cytotoxicity assay; type: cell-based; conditions: Homo sapiens, T47D, 48 h, read-out: Human cancer cell lines IC50 T-47D (Breast cancer)
Experimental: as §1

COc1cc(C2c3c(cc(OC)c(OC)c3OC)C(=O)C2Cc2ccc3c(c2)OCO3)cc(OC)c1OC (stereo not drawn) [Compound 2, 2-(3",4"-methylenedioxybenzyl)-3-(3',4',5'-trimethoxyphenyl)-4,5,6-trimethoxy-indan-1-one]
ALP change as compare to control groups ([1]; 1000 mg/kg body weight, single oral dose): significant changes | differential leucocytes counts ([1]; single acute oral dose at 5, 50, 300 and 1000 mg/kg body weight, n=6, compared to control (Figure 2)): Non significant changes | absolute and relative organ weight ([1]; single acute oral dose at 5, 50, 300 and 1000 mg/kg, n=6, compared to control (Figure 1)): Non significant changes | observational changes, morbidity and mortality ([1]; single acute oral dose, up to the dose level of 1000 mg/kg body weight): No observational changes, morbidity and mortality | ALP ([1]; single oral dose 5 mg/kg): 167.3±16.5 U/L | Albumin ([1]; single oral dose 5 mg/kg): 3.63 ± 0.28 g/dL | Bilirubin ([1]; single oral dose 5 mg/kg): 0.14 ± 0.07 mg/dL | Body weight ([1]; single oral dose 5 mg/kg): 23.97±0.64 gm | Cholesterol ([1]; single oral dose 5 mg/kg): 104.0 ± 6.7 mg/dL | Creatinine ([1]; single oral dose 5 mg/kg): 0.56 ± 0.10 mg/dL | Haemoglobin ([1]; single oral dose 5 mg/kg): 13.55±0.60 gm/dL | RBC ([1]; single oral dose 5 mg/kg): 5.93±0.39 million/mm3 | SGOT ([1]; single oral dose 5 mg/kg): 12.24±1.18 U/L | SGPT ([1]; single oral dose 5 mg/kg): 15.74±1.03 U/L | Serum Protein ([1]; single oral dose 5 mg/kg): 1.07 ± 0.06 mg/mL | Triglycerides ([1]; single oral dose 5 mg/kg): 98.74 ± 3.11 mg/dL | WBC ([1]; single oral dose 5 mg/kg): 7.95±0.64 1000*/mm3 | ALP ([1]; single oral dose 50 mg/kg): 191.6±27.6 U/L | Bilirubin ([1]; single oral dose 50 mg/kg): 0.09 ± 0.01 mg/dL | Body weight ([1]; single oral dose 50 mg/kg): 24.29±0.95 gm | Cholesterol ([1]; single oral dose 50 mg/kg): 120.3 ± 10.4 mg/dL | Creatinine ([1]; single oral dose 50 mg/kg): 0.69 ± 0.08 mg/dL | Haemoglobin ([1]; single oral dose 50 mg/kg): 13.06±0.82 gm/dL | RBC ([1]; single oral dose 50 mg/kg): 5.83±0.17 million/mm3 | SGOT ([1]; single oral dose 50 mg/kg): 25.76±5.40 U/L | SGPT ([1]; single oral dose 50 mg/kg): 17.92±1.69 U/L | Serum Protein ([1]; single oral dose 50 mg/kg): 1.13 ± 0.07 mg/mL | Triglycerides ([1]; single oral dose 50 mg/kg): 74.95 ± 5.79 mg/dL | WBC ([1]; single oral dose 50 mg/kg): 7.99±0.55 1000*/mm3 | ALP ([1]; single oral dose 300 mg/kg): 224.0±6.70 U/L | Albumin ([1]; single oral dose 300 mg/kg): 3.63 ± 0.28 g/dL | Body weight ([1]; single oral dose 300 mg/kg): 23.83±0.42 gm | Cholesterol ([1]; single oral dose 300 mg/kg): 116.5 ± 15.6 mg/dL | Creatinine ([1]; single oral dose 300 mg/kg): 0.76 ± 0.03 mg/dL | Haemoglobin ([1]; single oral dose 300 mg/kg): 10.90±1.11 gm/dL | RBC ([1]; single oral dose 300 mg/kg): 6.03±0.11 million/mm3 | SGOT ([1]; single oral dose 300 mg/kg): 18.71±3.16 U/L | SGPT ([1]; single oral dose 300 mg/kg): 18.20±1.41 U/L | Serum Protein ([1]; single oral dose 300 mg/kg): 1.09 ± 0.06 mg/mL | Triglycerides ([1]; single oral dose 300 mg/kg): 104.94 ± 10.39 mg/dL | WBC ([1]; single oral dose 300 mg/kg): 8.13±0.64 1000*/mm3 | ALP ([1]; single oral dose 1000 mg/kg): 234.3±44.5 U/L | Albumin ([1]; single oral dose 1000 mg/kg): 3.26 ± 0.30 g/dL | Bilirubin ([1]; single oral dose 1000 mg/kg): 0.12 ± 0.04 mg/dL | Body weight ([1]; single oral dose 1000 mg/kg): 23.41±0.16 gm | Creatinine ([1]; single oral dose 1000 mg/kg): 0.76 ± 0.09 mg/dL | Haemoglobin ([1]; single oral dose 1000 mg/kg): 12.29±0.53 gm/dL | RBC ([1]; single oral dose 1000 mg/kg): 6.10±0.27 million/mm3 | SGOT ([1]; single oral dose 1000 mg/kg): 35.49±6.57 U/L | SGPT ([1]; single oral dose 1000 mg/kg): 11.97±1.67 U/L | Serum Protein ([1]; single oral dose 1000 mg/kg): 1.42 ± 0.16 mg/mL | Triglycerides ([1]; single oral dose 1000 mg/kg): 87.28 ± 4.39 mg/dL | WBC ([1]; single oral dose 1000 mg/kg): 8.57±0.76 1000*/mm3 | toxicity in in-vivo acute oral toxicity ([1]; up to 300mg/kg): no toxicity | tolerability ([1]; up to the dose level of 1000 mg/kg body weight as a single acute oral dose): well tolerated | IC50 (THP-1 (Leukemia)): 1000 nM | IC50 (T-47D (Breast cancer)): < 1000 nM
